From patent US7361690B2, “Compositions and methods for the treatment of urinary incontinence” (Gruenenthal GmbH, priority 2000, dated 2008)
Marks after values point to notes of the source that are not given here.

Legend:
[1] = system: female Sprague-Dawley rats; assay: Cystometry tests on conscious fresh rats; assay type: in vivo, rat; conditions: effect maximum, mean of 3 micturition cycles
Protocol: Cystometry investigations were carried out on fresh female Sprague-Dawley rats according to the method of Ishizuka et. al. ((1997), Naunyn-Schmiedeberg's Arch. Pharmacol. 355: 787-793). Three days after implantation of bladder and venous catheters the animals were investigated in the conscious state while freely moving. The bladder catheter was connected to a pressure gauge and an injection pump. The animals were placed in metabolic cages that enable the volume of urine to be measured. Physiological saline solution was infused (10 ml/hour) into the emptied bladder and the bladder pressure and volume of urine were continuously recorded. After a stabilization phase a 20-minute phase was recorded that was characterized by normal, reproducible micturition cycles. The following parameters among others were measured: • threshold pressure (TP), bladder pressure immediately before micturition, • bladder capacity (BC), residual volume after prior micturition plus volume of infused solution during the filling phase, • intercontraction interval (ICI), the time interval between consecutive micturition.
An increase in the threshold pressure (TP) indicates an important therapeutic effect in one of the medical conditions suitable for treatment with the method of the invention. Also, the intercontraction interval (ICI) is an important parameter for measuring the physiological effectiveness of a substance in the treatment of urinary incontinence, as is the bladder capacity (BC). In this connection, on account of the widely differing causes of the symptoms of these disease patterns it is not necessary to influence positively all three parameters in order for a medicament to be effective.
After recording three reproducible micturition cycles to provide a baseline value, the test substances 24 (1.0; 3.0; 5.0 mg/kg), 25 (1.5 mg/kg) and 26 (3.0 mg/kg) in a vehicle comprising 0.9% NaCl were applied intravenously and the effect on the cystometric parameters was recorded at 90 to 120 minutes. In the effect maximum the mean value of 3 micturition cycles was determined and recorded as a percentage change compared to the baseline value (Table 1).

[2] = system: narcotized ventilated rats; assay: Cystometry investigations in narcotized fresh rats (suppression of rhythmic spontaneous bladder contractions); assay type: in vivo, rat; conditions: intravenous, cumulative, lowest dose at which contractions disappeared for the first time over a period of 10 minutes
Protocol: The cystometric investigation was carried out on fresh female rats according to the method of Kimura et al. (Kimura et al., 1996, Int. J. Urol. 3: 218-227). The abdomen of narcotized ventilated rats is opened and the ureter is ligated. The urine is drawn off from the kidneys. A catheter is inserted into the bladder and secured in place. […] The test substance is applied intravenously in a cumulative manner after stable starting values were reached. An effect on the bladder function is manifested by the suppression of the spontaneous contractions. The disappearance of the contractions over a period of 10 minutes serves as a parameter for their suppression.
With all the substances listed there was a measurable suppression of the spontaneous contractions in rats.

COc1cccc([C@@]2(O)C[C@H](O)CC[C@@H]2CN(C)C)c1.Cl (racemic) [Compound 24, (1RS,3RS,6RS)-6-dimethylaminomethyl-1-(3-methoxyphenyl)-cyclohexane-1,3-diol, hydrochloride]
BC Bladder Capacity, change compared to the baseline value ([1]; 1.0 mg/kg iv): −8.0%
ICI Inter-Contraction Interval, change compared to the baseline value ([1]; 1.0 mg/kg iv): −15%**
TP Threshold Pressure, change compared to the baseline value ([1]; 1.0 mg/kg iv): +44.0%***
BC Bladder Capacity, change compared to the baseline value ([1]; 3.0 mg/kg iv): −16.0%*
ICI Inter-Contraction Interval, change compared to the baseline value ([1]; 3.0 mg/kg iv): −16%*
TP Threshold Pressure, change compared to the baseline value ([1]; 3.0 mg/kg iv): +94.0%**
BC Bladder Capacity, change compared to the baseline value ([1]; 5.0 mg/kg iv): −26.0%
ICI Inter-Contraction Interval, change compared to the baseline value ([1]; 5.0 mg/kg iv): −21.2%
TP Threshold Pressure, change compared to the baseline value ([1]; 5.0 mg/kg iv): +69.0%*

CN(C)C[C@H]1CC[C@@H](O)C[C@]1(O)c1cccc(O)c1.Cl (racemic) [Compound 26, (1RS,3RS,6RS)-6-dimethylaminomethyl-1-(3-hydroxyphenyl)-cyclohexane-1,3-diol, hydrochloride]
BC Bladder Capacity, change compared to the baseline value ([1]; 3.0 mg/kg iv): +29.0%***
ICI Inter-Contraction Interval, change compared to the baseline value ([1]; 3.0 mg/kg iv): +27.0%*
TP Threshold Pressure, change compared to the baseline value ([1]; 3.0 mg/kg iv): +86.0%***

COc1cccc([C@@]2(O)C[C@@H](O)CC[C@@H]2CN(C)C)c1.Cl (racemic) [Compound 27, (1RS,3SR,6RS)-6-dimethylaminomethyl-1-(3-methoxyphenyl)-cyclohexane-1,3-diol, hydrochloride]
Mean Value of Lowest Dose for Contraction Suppression [2]: 115 (n = 2) mg/kg

COc1cccc([C@@]2(O)C[C@H](O)CC[C@@H]2CN(C)C)c1.Cl [Compound 25, (+)-(1R,3R,6R)-6-dimethylaminomethyl-1-(3-methoxyphenyl)-cyclohexane-1,3-diol, hydrochloride]
BC Bladder Capacity, change compared to the baseline value ([1]; 1.5 mg/kg iv): −14.0%*
ICI Inter-Contraction Interval, change compared to the baseline value ([1]; 1.5 mg/kg iv): −9.0%
TP Threshold Pressure, change compared to the baseline value ([1]; 1.5 mg/kg iv): +62.0%*

C[C@H]1CC[C@H](CN(C)C)[C@@](O)(c2cccc(O)c2)C1.Cl [Compound 28, (+)-(1R,2R,5S)-3-(2-dimethylaminomethyl-1-hydroxy-5-methylcyclohexyl)-phenol, hydrochloride]
Mean Value of Lowest Dose for Contraction Suppression [2]: 16.7 (n = 3) mg/kg

(1RS,2RS,5RS)-3-(2-dimethylaminomethyl-1-hydroxy-5-trifluoromethylcyclohexyl)-phenol,hydrochloride [Compound 29]
Mean Value of Lowest Dose for Contraction Suppression [2]: 23.3 (n = 3) mg/kg
